Measurements from patent US6416752B1, “Termite bait composition and method” (Whitmire Micro-Gen Research Laboratories, Inc., priority 2001, dated 2002).
“And” between values parts separate entries of the source, which are not always exact repeats. Equal values may be shown once.

Tested on: Reticulitermes virginicus
Assay: standard choice box test of termite bait compositions with killing agents
Assay type: in vivo
Details: for Percent Survivorship: choice with untreated pine wood; for Amount of Wood Removed: untreated pine wood blocks; for termites killed: after 25 days
Experimental: The termite bait active ingredients or killing agents diflubenzuron, emamectin benzoate and thiamethoxam were tested for their efficacy. The termite species tested was Reticulitermes virginicus. The methodology employed was the standard “choice box” test used in Example 1 in which termites were released into a central chamber with untreated wood. The central chamber was connected, using Tygon tubing (2 mm I D), with peripheral feeding chambers containing a termite bait composition of the invention (microcrystalline cellulose powder having an average particle size of 20 micrometers and a termite killing agent) or untreated pine wood. Each replicate was given the choice of one gram of the treated cellulose powder or three blocks (1 cm) of untreated pine wood. At the end of 25 or 37 days, the number of live termites was counted. At the same time, the amount of pine wood or termite bait composition consumed was measured. The treatments were replicated two times.

[1] = 25 days in bioassay, 0.05% in microcrystalline cellulose powder

| Compound | Percent Survivorship [1] [%] | Amount of Cellulose Powder Removed (25 days, 0.05%, one gram of treated cellulose powder offered) | Amount of Wood Removed (25 days, 0.05%) [g] | termites killed [%] | Amount of Cellulose Powder Removed (600 h) [g] | Percent Survivorship (37 days in bioassay, 0.5% in microcrystalline cellulose powder) | control of termites (after 37 days exposure) |
| --- | --- | --- | --- | --- | --- | --- | --- |
| emamectin benzoate | 0 | 0.07 g and 0.13 g | 0 | 100 |  |  |  |
| CN1COCN(Cc2cnc(Cl)s2)/C1=N\[N+](=O)[O-] [Thiamethoxam, thiamethoxam] | 0 |  | 0 | 100 | 0.01 |  |  |
| O=C(NC(=O)c1c(F)cccc1F)Nc1ccc(Cl)cc1 [Dimilin, diflubenzuron] |  |  |  |  |  | 0.1% and 0% | almost complete control |
